Test results published in PMC9071946, “In vitro and in silico determination of glutaminyl cyclase inhibitors” (RSC Advances, 2019).

Experiments:
[1] = biological target: human glutaminyl cyclase (hQC) (Homo sapiens, UniProt Q16769); assay: hQC inhibition, fluorometric assay with fluorogenic substrate Glu-AMC and pGAPase
Procedure: The synthesized compounds were evaluated for hQC inhibition by a fluorometric assay with a fluorogenic substrate, Glu-AMC·HBr (L-glutamine 7-amido-4-methylcoumarin, BACHEM, Switzerland), and an auxiliary enzyme, pyroglutamyl peptidase (pGAPase, 50 units, Qiagen, Germany), as our previously reported.[29] The used buffer consisted of 25 mM HEPES (Sigma), with pH 7.0, adjusted with HCl. […] After incubation in 96-well black plates (Greiner, Austria) for 10 min at 37 °C, the reaction was started by adding 50 μL of hQC solution (0.04 μg mL^−1). The excitation/emission wavelengths at 380/460 nm were correlated with the amount of ACM, the last product of the enzymatic process.

human QC = details: ref bindingdb.org, cited from earlier work
[2] = parameters: method as in PMID 26101580; details: cited from earlier work
[3] = IC50 for inhibition of the hQC enzyme, Table 1, HEPES pH 7.0, 37 °C
[4] = Table 2, from IC50 assumed equal to the inhibition constant ki
[5] = supplement Table S1, compounds 1_x and 3_x

Sequence of human glutaminyl cyclase (hQC) (Q16769 29-361): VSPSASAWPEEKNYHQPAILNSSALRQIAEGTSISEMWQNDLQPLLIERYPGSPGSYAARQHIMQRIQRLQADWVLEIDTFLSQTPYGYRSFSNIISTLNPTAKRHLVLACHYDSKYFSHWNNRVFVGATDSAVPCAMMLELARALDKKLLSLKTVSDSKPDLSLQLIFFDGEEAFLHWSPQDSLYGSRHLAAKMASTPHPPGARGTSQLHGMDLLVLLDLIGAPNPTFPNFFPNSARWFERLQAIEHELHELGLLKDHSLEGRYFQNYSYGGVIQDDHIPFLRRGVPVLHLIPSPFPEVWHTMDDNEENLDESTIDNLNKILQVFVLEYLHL

Row | IC50 ([1]; IC50, supplement Table S3) [nM] | IC50 [1, 3] [nM] | ΔGEXP [1, 4] [kcal/mol] | more potent than 1_1 ([1]; ratio of IC50 values) [folds] | ΔGEXP [1, 5] [kcal/mol] | SMILES | ΔGEXP (human QC; supplement Table S1, ligands 1-12) [kcal/mol] | Ki (human QC; supplement Table S3) [nM] | permeation of the BBB [2]
1 | 305 | 300 ± 90 | -8.94 | – | – | COc1cc2nc(NCCCn3cncc3C)sc2cc1OC [Compound 1_1] | – | – | –
2 | 107 | 110 ± 30 | -9.57 | 2 | – | COc1cc2nc(NCCCn3cncc3C)[nH]c2cc1OC [Compound 1_2, 5,6-dimethoxy-N-(3-(5-methyl-1H-imidazol-1-yl)propyl)-1H-benzo[d]imidazol-2-amine] | – | – | –
3 | 316 | 320 ± 100 | -8.92 | – | – | COc1ccc(Nc2nc(CCn3cncc3C)cs2)cc1OC [Compound 1_3] | – | – | –
4 | 420 | 420 ± 60 | -8.75 | – | -8.69 | COc1ccc(Nc2nnc(CCn3cncc3C)o2)cc1OC [Compound 1_4] | – | – | –
5 | 637 | 640 ± 90 | -8.50 | – | -8.45 | COC(=O)C(C)NC(=O)C(Cc1ccccc1)NCCCn1cncc1C (stereo not shown) [Compound 3_1] | – | – | –
6 | 446 | 450 ± 40 | -8.68 | – | -8.59 | Cc1cncn1CCCNC(Cc1ccccc1)C(=O)NC(C)C(N)=O (stereo not shown) [Compound 3_3] | – | – | –
7 | – | – | – | – | – | c1ccc(Cn2ccnc2)cc1 [Compound 77918] | -9.03 | 262 | –
8 | – | – | – | – | – | COc1cc(NC(=S)NCCCn2ccnc2)ccc1O[11CH3] [[^11C]PBD150] | – | – | impossible permeation the BBB
